Experiment [1] has as its target T1, Adenosine receptor A3 (Homo sapiens, UniProt P0DMS8).
T1 sequence (P0DMS8 whole entry): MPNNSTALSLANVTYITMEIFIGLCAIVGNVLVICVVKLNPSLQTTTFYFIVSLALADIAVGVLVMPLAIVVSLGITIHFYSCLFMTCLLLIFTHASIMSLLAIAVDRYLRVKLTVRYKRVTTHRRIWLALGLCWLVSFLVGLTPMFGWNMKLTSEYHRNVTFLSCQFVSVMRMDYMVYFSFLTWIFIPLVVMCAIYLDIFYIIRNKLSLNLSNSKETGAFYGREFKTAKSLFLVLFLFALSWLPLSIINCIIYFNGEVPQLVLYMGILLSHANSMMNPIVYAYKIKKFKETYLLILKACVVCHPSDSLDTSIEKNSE
Description: Displacement of [3H]NECA from human recombinant adenosine A3 receptor expressed in HEK293T cells. It is filed as cell-based, HEK-293T.

The target in experiment [2] is T2, Adenosine receptor A1 (Homo sapiens, UniProt P30542).
T2 sequence (P30542 whole entry): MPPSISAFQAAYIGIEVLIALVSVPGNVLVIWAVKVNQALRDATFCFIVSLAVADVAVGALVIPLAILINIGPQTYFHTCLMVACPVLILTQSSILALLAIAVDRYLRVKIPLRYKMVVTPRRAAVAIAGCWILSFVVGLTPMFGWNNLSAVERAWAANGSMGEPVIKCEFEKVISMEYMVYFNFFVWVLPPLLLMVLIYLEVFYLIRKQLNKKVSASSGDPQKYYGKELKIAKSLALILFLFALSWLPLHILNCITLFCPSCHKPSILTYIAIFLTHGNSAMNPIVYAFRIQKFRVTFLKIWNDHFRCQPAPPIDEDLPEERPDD
Kind of experiment: Displacement of [3H]DPCPX from human recombinant adenosine A1 receptor expressed in HEK293T cells. Format: cell-based, HEK-293T.

Experiment [3] concerns the target Adenosine receptor A2a (Homo sapiens, UniProt P29274). Kind of experiment: biochemical.
Description: Displacement of [3H]CGS21680 from human recombinant adenosine A2A receptor expressed in HEK293T cells

Sequence of Adenosine receptor A2a (P29274 whole entry): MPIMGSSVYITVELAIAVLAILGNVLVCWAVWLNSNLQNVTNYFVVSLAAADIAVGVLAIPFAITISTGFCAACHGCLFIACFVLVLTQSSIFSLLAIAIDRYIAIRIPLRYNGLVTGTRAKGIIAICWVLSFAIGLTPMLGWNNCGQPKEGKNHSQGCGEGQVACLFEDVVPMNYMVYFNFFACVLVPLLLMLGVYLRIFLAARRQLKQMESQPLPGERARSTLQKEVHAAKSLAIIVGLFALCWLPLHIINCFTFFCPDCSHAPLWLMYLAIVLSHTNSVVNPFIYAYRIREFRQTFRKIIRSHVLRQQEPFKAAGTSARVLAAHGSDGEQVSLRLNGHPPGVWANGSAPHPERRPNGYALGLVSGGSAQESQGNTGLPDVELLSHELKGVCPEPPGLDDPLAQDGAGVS

`Cc1cc2c(c(C)c1O)c1ccncc1n2C`: the Ki in experiment [1] is 43.4 µM; in experiment [2], > 100 µM; in experiment [3], 80.6 µM.
For the molecule `Cc1cc2[nH]c3cccnc3c2c(C)c1O`, the Ki is 4.43 µM in experiment [1], > 100 µM in experiment [2] and 24.9 µM in experiment [3].
Regarding `Cc1cc2c(c(C)c1O)c1ncccc1n2C`, the Ki in experiment [1] is 13.3 µM; in experiment [2], > 100 µM; in experiment [3], 44.1 µM.
In the same order, the values of `Cc1cc2c(c(C)c1O)c1cc[n+](C)cc1n2C` are > 100 µM, > 100 µM and > 100 µM.
Taken in the same sequence, the figures for `Cc1cc2[nH]c3c[n+](C)ccc3c2c(C)c1O` were 29.7 µM, > 100 µM and > 100 µM.
Regarding `Cc1cc2[nH]c3cnccc3c2c(C)c1O`, the Ki in experiment [1] was 17.7 µM; in experiment [2], > 100 µM; in experiment [3], > 100 µM.

(Values after ChEMBL document CHEMBL1157148, “Synthesis of eudistomin D analogues and its effects on adenosine receptors” (Bioorg Med Chem, 2008).)
